The record followed here is ChEMBL document CHEMBL5696442, “Discovery of type II inhibitors of TGFβ-activated kinase 1 (TAK1) and mitogen-activated protein kinase kinase kinase kinase 2 (MAP4K2)” (J Med Chem, 2015).

For assay [1], the target named is Serine/threonine-protein kinase MARK1 (Homo sapiens) (UniProt Q9P0L2). Description: Inhibition of MARK1 (unknown origin) at 1 uM by Ambit Kinomescan binding assay relative to control; values are per cent of control.
The target of assay [2] is Serine/threonine-protein kinase Chk2 (Homo sapiens) (UniProt O96017). Nature of the assay: Inhibition of CHEK2 (unknown origin) at 1 uM by Ambit Kinomescan binding assay relative to control.
Chain of Serine/threonine-protein kinase Chk2 (Homo sapiens) (O96017 whole entry): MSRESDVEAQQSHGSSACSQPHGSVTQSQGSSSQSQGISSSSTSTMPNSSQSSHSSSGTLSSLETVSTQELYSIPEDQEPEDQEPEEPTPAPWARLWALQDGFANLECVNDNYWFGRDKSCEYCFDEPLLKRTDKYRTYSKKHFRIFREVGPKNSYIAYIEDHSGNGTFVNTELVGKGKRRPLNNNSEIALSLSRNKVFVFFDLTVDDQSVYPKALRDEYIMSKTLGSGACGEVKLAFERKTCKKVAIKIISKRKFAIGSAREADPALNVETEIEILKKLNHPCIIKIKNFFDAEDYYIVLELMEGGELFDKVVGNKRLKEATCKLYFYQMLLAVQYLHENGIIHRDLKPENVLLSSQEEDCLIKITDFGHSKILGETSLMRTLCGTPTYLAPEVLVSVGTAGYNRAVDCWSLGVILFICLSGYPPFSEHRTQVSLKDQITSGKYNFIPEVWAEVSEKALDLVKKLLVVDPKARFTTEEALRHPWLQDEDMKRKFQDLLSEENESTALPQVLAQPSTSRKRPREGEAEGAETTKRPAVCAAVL
Assay [3] has as its target G protein-coupled receptor kinase 4 (Homo sapiens) (UniProt P32298). Nature of the assay: Inhibition of GRK4 (unknown origin) at 1 uM by Ambit Kinomescan binding assay relative to control; values are per cent of control.
The target in assay [4] is T1, Mitogen-activated protein kinase kinase kinase 5 (Homo sapiens) (UniProt Q99683).
T1 sequence (whole entry): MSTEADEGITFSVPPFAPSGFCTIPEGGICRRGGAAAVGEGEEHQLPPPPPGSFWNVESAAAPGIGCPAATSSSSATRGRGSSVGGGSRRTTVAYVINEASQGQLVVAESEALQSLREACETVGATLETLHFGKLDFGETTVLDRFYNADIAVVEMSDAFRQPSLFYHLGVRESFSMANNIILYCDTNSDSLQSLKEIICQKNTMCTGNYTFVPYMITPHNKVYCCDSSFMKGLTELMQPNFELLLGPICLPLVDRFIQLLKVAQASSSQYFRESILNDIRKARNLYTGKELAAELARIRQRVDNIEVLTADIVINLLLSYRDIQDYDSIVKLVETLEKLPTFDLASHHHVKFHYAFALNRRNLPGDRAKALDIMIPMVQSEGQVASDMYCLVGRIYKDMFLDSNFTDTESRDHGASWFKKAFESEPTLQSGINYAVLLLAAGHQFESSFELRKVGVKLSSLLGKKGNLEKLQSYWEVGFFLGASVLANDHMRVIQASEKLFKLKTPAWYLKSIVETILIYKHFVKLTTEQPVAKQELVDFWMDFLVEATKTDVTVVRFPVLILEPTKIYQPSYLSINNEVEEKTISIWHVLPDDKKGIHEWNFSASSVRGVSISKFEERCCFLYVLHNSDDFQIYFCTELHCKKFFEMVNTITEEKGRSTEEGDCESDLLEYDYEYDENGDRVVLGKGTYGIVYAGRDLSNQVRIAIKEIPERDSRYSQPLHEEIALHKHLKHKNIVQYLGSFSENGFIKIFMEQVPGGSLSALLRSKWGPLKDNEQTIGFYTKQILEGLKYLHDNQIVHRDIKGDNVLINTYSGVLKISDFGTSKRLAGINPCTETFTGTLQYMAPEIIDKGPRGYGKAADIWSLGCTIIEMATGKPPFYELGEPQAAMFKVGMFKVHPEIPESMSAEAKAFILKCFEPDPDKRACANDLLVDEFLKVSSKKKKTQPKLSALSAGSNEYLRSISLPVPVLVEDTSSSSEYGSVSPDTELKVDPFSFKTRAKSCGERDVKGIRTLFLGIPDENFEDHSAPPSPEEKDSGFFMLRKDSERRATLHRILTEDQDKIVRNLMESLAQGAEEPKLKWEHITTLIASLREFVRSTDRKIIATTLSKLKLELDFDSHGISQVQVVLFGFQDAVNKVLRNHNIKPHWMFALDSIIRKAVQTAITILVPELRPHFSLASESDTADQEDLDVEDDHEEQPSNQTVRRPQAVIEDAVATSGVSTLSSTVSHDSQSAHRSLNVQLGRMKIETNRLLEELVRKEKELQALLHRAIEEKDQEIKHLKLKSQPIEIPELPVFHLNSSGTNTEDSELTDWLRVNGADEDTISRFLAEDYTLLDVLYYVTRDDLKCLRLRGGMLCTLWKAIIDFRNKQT
Description: Inhibition of MAP3K5 Lys1 labeling site harbouring IAIKEIPERDSR in human A-375 cells at 5 uM by KiNativ Profiling analysis relative to control. It is filed as cell-based.

In assay [5] the target is Ankyrin repeat and protein kinase domain-containing protein 1 (Homo sapiens) (UniProt Q8NFD2). Nature of the assay: Inhibition of ANKK1 (unknown origin) at 10 uM by Ambit Kinomescan binding assay relative to control.
Chain of Ankyrin repeat and protein kinase domain-containing protein 1 (Homo sapiens) (Q8NFD2 whole entry, the tested form may be a part): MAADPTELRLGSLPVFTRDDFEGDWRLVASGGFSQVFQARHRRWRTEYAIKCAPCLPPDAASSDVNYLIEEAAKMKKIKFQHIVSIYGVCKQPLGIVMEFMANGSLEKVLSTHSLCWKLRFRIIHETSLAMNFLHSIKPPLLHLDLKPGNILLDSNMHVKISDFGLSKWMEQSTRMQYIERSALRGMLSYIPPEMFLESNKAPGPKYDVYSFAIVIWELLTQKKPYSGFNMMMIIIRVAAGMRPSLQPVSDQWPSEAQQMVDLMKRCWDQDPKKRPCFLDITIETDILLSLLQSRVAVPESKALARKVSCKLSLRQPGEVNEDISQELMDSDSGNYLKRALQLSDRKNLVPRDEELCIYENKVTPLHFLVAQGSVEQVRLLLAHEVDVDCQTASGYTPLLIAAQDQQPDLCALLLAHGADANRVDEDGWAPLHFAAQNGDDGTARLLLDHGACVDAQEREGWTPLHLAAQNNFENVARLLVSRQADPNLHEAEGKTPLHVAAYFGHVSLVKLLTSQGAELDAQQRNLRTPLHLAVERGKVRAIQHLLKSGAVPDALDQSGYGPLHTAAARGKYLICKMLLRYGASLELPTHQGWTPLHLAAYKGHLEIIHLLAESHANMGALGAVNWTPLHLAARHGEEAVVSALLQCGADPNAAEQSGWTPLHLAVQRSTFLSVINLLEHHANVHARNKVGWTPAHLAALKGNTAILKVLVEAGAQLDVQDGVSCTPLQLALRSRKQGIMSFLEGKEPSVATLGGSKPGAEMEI
Assay [6] addresses Receptor-interacting serine/threonine-protein kinase 1 (Homo sapiens) (UniProt Q13546). Nature of the assay: Inhibition of RIPK1 (unknown origin) at 10 uM by Ambit Kinomescan binding assay relative to control; values are per cent of control.
Assay [7] concerns the target T2, Receptor-interacting serine/threonine-protein kinase 4 (Homo sapiens) (UniProt P57078).
T2 sequence (whole entry): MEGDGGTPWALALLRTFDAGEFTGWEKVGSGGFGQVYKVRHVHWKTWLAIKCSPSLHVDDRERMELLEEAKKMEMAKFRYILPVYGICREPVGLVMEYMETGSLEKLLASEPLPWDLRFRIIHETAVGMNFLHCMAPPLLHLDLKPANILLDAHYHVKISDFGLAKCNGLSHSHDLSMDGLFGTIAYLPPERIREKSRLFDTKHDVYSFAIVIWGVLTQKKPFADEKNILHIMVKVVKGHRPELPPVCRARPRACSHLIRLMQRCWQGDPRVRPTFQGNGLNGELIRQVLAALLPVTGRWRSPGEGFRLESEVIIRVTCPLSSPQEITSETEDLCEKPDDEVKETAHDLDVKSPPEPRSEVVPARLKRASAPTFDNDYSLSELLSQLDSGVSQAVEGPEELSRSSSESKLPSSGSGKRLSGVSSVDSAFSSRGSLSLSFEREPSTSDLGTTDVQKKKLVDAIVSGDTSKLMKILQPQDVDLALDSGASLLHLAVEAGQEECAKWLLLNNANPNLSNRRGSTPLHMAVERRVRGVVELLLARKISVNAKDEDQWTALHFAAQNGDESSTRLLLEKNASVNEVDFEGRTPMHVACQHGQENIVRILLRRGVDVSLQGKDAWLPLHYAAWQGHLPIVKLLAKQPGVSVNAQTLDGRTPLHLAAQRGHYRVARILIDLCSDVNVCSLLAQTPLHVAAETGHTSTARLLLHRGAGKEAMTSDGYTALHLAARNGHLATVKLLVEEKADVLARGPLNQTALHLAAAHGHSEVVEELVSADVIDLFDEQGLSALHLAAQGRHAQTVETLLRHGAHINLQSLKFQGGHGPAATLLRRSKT
Nature of the assay: Inhibition of ANKRD3 Lys1 labeling site in human A-375 cells at 0.05 uM by KiNativ Profiling analysis relative to control. It is filed as cell-based.

Chain of Serine/threonine-protein kinase MARK1 (Homo sapiens) (Q9P0L2 whole entry, looked up): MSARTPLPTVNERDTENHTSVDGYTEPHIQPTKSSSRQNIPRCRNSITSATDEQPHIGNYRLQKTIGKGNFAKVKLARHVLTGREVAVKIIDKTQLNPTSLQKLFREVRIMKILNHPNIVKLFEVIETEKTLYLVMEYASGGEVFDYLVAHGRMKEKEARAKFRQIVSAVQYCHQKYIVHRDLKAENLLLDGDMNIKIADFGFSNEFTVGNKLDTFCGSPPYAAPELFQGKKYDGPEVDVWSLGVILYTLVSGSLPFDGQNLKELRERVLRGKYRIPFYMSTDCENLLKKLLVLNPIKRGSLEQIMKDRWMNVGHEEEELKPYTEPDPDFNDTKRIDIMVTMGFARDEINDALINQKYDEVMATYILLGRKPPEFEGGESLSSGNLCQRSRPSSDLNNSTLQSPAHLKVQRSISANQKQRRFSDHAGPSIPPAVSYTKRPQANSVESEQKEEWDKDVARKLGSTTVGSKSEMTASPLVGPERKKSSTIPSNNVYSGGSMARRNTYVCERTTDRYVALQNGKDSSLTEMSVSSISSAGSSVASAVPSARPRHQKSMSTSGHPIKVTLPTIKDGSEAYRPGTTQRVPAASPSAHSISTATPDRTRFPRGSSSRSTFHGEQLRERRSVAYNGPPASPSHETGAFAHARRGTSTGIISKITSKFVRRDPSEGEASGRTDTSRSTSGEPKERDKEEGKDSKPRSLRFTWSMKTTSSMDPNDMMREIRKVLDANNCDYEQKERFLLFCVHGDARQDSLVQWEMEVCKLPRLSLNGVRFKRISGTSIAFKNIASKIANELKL
Chain of G protein-coupled receptor kinase 4 (Homo sapiens) (P32298 whole entry, looked up): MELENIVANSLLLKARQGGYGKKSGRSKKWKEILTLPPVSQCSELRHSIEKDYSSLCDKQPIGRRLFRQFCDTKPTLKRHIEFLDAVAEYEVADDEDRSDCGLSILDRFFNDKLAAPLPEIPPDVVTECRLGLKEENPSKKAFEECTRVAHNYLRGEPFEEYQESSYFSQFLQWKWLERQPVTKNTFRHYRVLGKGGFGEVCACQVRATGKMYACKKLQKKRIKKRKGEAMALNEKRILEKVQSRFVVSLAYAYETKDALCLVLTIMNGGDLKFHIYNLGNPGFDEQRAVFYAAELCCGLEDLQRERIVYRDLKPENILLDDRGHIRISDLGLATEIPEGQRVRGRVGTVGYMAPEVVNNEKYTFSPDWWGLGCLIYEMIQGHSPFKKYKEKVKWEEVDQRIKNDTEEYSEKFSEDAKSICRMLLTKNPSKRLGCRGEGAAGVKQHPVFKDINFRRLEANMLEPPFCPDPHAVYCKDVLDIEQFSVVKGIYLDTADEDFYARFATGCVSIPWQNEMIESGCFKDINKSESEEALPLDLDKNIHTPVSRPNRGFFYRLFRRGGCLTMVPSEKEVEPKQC
Chain of Receptor-interacting serine/threonine-protein kinase 1 (Homo sapiens) (Q13546 whole entry): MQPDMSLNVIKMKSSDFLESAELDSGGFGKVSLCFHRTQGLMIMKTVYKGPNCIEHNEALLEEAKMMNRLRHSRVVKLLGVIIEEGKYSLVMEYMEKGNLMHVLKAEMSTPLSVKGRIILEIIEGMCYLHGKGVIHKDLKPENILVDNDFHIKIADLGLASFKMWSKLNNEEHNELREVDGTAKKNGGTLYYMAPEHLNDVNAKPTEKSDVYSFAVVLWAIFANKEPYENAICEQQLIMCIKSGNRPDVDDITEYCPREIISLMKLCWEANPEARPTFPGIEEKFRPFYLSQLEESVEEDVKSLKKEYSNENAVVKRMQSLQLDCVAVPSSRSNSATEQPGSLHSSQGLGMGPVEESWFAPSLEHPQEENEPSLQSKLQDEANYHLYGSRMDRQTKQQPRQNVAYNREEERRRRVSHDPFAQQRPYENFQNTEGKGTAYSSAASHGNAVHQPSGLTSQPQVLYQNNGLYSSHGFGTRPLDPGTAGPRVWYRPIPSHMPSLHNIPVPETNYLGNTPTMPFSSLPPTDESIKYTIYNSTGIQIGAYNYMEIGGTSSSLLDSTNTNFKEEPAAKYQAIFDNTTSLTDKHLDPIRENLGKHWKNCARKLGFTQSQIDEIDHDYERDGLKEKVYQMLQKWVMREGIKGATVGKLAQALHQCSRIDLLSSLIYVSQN

A word on the residual activity: it is the activity still measured, relative to the control. A low value points to little activity left. The term inhibition denotes the drop in the measured response relative to a control, in per cent. Consider `CCN1CCN(Cc2ccc(NC(=O)c3ccc(C)c(/C=C/c4cnc5[nH]ccc5c4OC)c3)cc2C(F)(F)F)CC1`, for which the residual activity in assay [1] amounted to 100%; in assay [3], 40%. In assay [2], the inhibition stood at 82%.

For `CCN1CCN(Cc2ccc(NC(=O)c3ccc(C)c(Oc4ccnc5[nH]ccc45)c3)cc2C(F)(F)F)CC1`, the values for the inhibition in assay [4], in assay [5] and in assay [7] were -3.2%, 23% and 32.4%, respectively. The residual activity in assay [6] amounted to 0%.
